From PMC10967856, “Mechanistic Insights Revealed by YbtPQ in the Occluded State” (Biomolecules, 2024)

Experiments:
YbtPQ [1] = target: T1, YbtPQ (Escherichia coli, UniProt Q1RAG2+Q1RAG3); conditions: trapping at 37 °C for 15 min, vanadate 0-20 mM tested (20 mM with 18 mM ATP and 54 mM MgCl2 for the cryo-EM sample); YbtPQ-nanodisc; traps as ADP-Vi
T1 construct: gene ybtP

YbtPQ [2] = target: T1, YbtPQ; conditions: YbtPQ-nanodisc; basal ATPase activity, no Km given

Compound	% drop in ATPase activity after vanadate trapping (YbtPQ [1])	ATPase activity, malachite green phosphate release (YbtPQ [2])
[O]=[V]([OH])([OH])[OH] [vanadate]	~ 90%	
Nc1ncnc2c1ncn2[C@@H]1O[C@H](COP(=O)(O)OP(=O)(O)OP(=O)(O)O)[C@@H](O)[C@H]1O [ATP]		malachite green reacting with the released phosphate group
